Measurements as given in PMC8078842 (PLoS Neglected Tropical Diseases, 2021).
Structures can show the parent of a compound that is named as a salt. Where two headings read alike, the source gives them in different places. Bridge positions count the residues as written; N and C are the ends. Ends that are not written are not given here.

How the values were obtained:
[1] = target: Glutamate, Kainate Site (Ionotropic); parameters: method as in PERKIN ELMER; details: reference compound of the assay; ref PERKIN ELMER; cited from earlier work
[2] = target: Muscarinic, Non-selective, Central; parameters: method as in PERKIN ELMER; details: reference compound of the assay; ref PERKIN ELMER; cited from earlier work
[3] = target: Nitric Oxide, NOS (Neuronal-Binding); parameters: method as in PERKIN ELMER; details: reference compound of the assay; ref PERKIN ELMER; cited from earlier work
[4] = target: Glutamate, NMDA Agonist Site (Ionotropic); parameters: method as in PERKIN ELMER; details: reference compound of the assay; ref PERKIN ELMER; cited from earlier work
[5] = cited from earlier work
[6] = system: P-gp (human MDR1); assay: in vitro; details: dog, UPLC-MS/MS
[7] = target: Sodium, Site 2; parameters: method as in PERKIN ELMER; details: reference compound of the assay; ref PERKIN ELMER; cited from earlier work
[8] = target: Potassium Channel, ATP-Sensitive; parameters: method as in PERKIN ELMER; details: reference compound of the assay; ref PERKIN ELMER; cited from earlier work
[9] = target: Potassium Channel, Ca2+ Act., VI; parameters: method as in PERKIN ELMER; details: reference compound of the assay; ref PERKIN ELMER; cited from earlier work
[10] = target: Angiotensin II, AT2; parameters: method as in PERKIN ELMER; details: reference compound of the assay; ref PERKIN ELMER; cited from earlier work
[11] = target: Decarboxylase, Glutamic Acid; parameters: method as in PERKIN ELMER; details: reference compound of the assay; ref PERKIN ELMER; cited from earlier work
[12] = target: Esterase, Acetylcholine; parameters: method as in PERKIN ELMER; details: reference compound of the assay; ref PERKIN ELMER; cited from earlier work
[13] = target: GABA A, BDZ, alpha 1 site; details: read-out: Reference Ki; reference compound of the assay; ref PERKIN ELMER; cited from earlier work
[14] = target: Glycine, Strychnine-sensitive; details: read-out: Reference Ki; reference compound of the assay; ref PERKIN ELMER; cited from earlier work
[15] = target: Corticotropin Releasing Factor, Non-selective; parameters: method as in PERKIN ELMER; details: reference compound of the assay; ref PERKIN ELMER; cited from earlier work
[16] = target: Cholecystokinin, CCK2 (CCKB); parameters: method as in PERKIN ELMER; details: reference compound of the assay; ref PERKIN ELMER; cited from earlier work
[17] = target: T1, Oxidase, MAO-A-Peripheral (Rattus norvegicus, UniProt P21396); parameters: method as in PERKIN ELMER; details: reference compound of the assay; ref PERKIN ELMER; cited from earlier work
T1 sequence (P21396 1-526): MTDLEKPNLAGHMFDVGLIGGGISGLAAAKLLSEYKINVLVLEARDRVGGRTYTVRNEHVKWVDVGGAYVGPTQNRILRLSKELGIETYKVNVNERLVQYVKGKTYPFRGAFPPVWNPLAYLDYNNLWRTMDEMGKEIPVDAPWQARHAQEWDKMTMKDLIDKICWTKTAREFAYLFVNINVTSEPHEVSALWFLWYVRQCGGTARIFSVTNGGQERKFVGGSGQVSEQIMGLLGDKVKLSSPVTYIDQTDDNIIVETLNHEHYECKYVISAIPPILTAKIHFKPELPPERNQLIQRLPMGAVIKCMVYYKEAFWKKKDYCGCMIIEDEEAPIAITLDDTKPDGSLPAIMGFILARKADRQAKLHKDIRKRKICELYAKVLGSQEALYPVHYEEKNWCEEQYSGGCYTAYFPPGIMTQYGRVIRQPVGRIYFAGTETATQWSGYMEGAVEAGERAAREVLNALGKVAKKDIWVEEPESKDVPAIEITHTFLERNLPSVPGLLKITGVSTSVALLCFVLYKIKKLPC

[18] = target: Nicotinic, Neuronal (a-BnTx insensitive); parameters: method as in PERKIN ELMER; details: reference compound of the assay; ref PERKIN ELMER; cited from earlier work
[19] = target: Glutamate, AMPA Site (Ionotropic); parameters: method as in PERKIN ELMER; details: reference compound of the assay; ref PERKIN ELMER; cited from earlier work
[20] = target: Histamine, H1; parameters: method as in PERKIN ELMER; details: reference compound of the assay; ref PERKIN ELMER; cited from earlier work
[21] = target: Glutamate,NMDA,Glycine (Stry-insens Site) (Ionot); details: read-out: Reference Ki; reference compound of the assay; ref PERKIN ELMER; cited from earlier work
[22] = target: Melatonin, Non-selective; parameters: method as in PERKIN ELMER; details: reference compound of the assay; ref PERKIN ELMER; cited from earlier work
[23] = target: Adenosine, Non-selective; details: read-out: Reference Ki; reference compound of the assay; ref PERKIN ELMER; cited from earlier work
[24] = target: Adrenergic, Beta, Non-selective; parameters: method as in PERKIN ELMER; details: reference compound of the assay; ref PERKIN ELMER; cited from earlier work
[25] = system: human red blood cells; assay: Haemolysis assay; type: cell-based
Protocol: Haemolysis Assay. The assay is based on the protocol detailed by. To determine the total blood haemoglobin, the CMH method was used to map a standard curve based on the absorption wavelength at 540 nm. Nine calibration standards were produced by preparing a stock solution of 5 mg/ml (standard 1) using haemoglobin standards in CMH reagent and serially diluting it to produce further standards of concentrations 2.5, 1, 0.80, 0.40, 0.20, 0.10, 0.05, and 0.025 mg/ml. 10% Triton X-100 (v/v) was prepared using distilled water to be used as the positive control. A 0.05% solution of DMSO was prepared using distilled water and used as one of the negative controls. 0.9% saline was another negative control. Pluronic samples were prepared in 0.9% saline.
A 5 ml vial of whole blood was centrifuged at 800 g for 15 minutes at room temperature. The supernatant was removed, and the […] was used to determine the plasma free haemoglobin (PFH) concentration.
200 μl x 2 of each of the calibration standards prepared were then transferred onto the 96-well plate and 200 μl x 4 of CMH reagent (control 1). […] After shaking it gently for a few minutes, the absorbance was read at 540 nm. […] 100 μl of CMH reagent was added to all these before measuring the absorbance spectrophotometrically at 540 nm. Using the calibration curve mapped earlier, the haemoglobin concentration in each of the wells was determined. […]

[26] = target: Glutamate, MK-801 Site (Ionotropic); parameters: method as in PERKIN ELMER; details: reference compound of the assay; ref PERKIN ELMER; cited from earlier work
[27] = target: Imidazoline, I2 [central]; parameters: method as in PERKIN ELMER; details: reference compound of the assay; ref PERKIN ELMER; cited from earlier work
[28] = MDCK-MDR1, pH 7.4, Papp A2B Replicate 1, 10 µM
[29] = MDCK-MDR1, pH 7.4, Papp A2B Replicate 2, 10 µM
[30] = MDCK-MDR1, pH 7.4, Papp B2A Replicate 1, 10 µM
[31] = MDCK-MDR1, pH 7.4, Papp B2A Replicate 2, 10 µM

## C=C(C)[C@H]1CN[C@H](C(=O)O)[C@H]1CC(=O)O [Kainic Acid]
[1]
  Ki: 10.8 nM

## CN1[C@@H]2CC[C@H]1C[C@@H](OC(=O)C(CO)c1ccccc1)C2 (some centres unmarked) [Atropine sulfate]
[2]
  Ki: 0.311 nM

## NC(=NCCC[C@H](N)C(=O)O)N[N+](=O)[O-] [NOARG (Nitro-L-Arginine)]
[3]
  Ki: 26.3 nM

## CN[C@H](CC(=O)O)C(=O)O [NMDA]
[4]
  Ki: 6810 nM

## c1cc2ccc3cccc4ccc(c1)c2c34 [pyrene]
[5]; F68
  log P for pyrene/Pluronics: ca. 2.5
[5]; P105
  log P for pyrene/Pluronics: ~3.5

## CC(C)NCC(O)COc1cccc2ccccc12 (centres unmarked) [propranolol]
[6]; [28]
  Papp A→B at 1 h, 10 µM: 34.1 ×10⁻⁶ cm/s
[6]; [29]
  Papp A→B at 1 h, 10 µM: 28 ×10⁻⁶ cm/s
[6]; [30]
  Papp B→A at 1 h, 10 µM: 41.4 ×10⁻⁶ cm/s
[6]; [31]
  Papp B→A at 1 h, 10 µM: 41.6 ×10⁻⁶ cm/s

## COc1cc2nc(N3CCN(C(=O)c4ccco4)CC3)nc(N)c2cc1OC [prazosin]
[6]; [28]
  Papp A→B at 1 h, 10 µM: 2.48 ×10⁻⁶ cm/s
[6]; [29]
  Papp A→B at 1 h, 10 µM: 1.96 ×10⁻⁶ cm/s
[6]; [30]
  Papp B→A at 1 h, 10 µM: 69.5 ×10⁻⁶ cm/s
[6]; [31]
  Papp B→A at 1 h, 10 µM: 70.7 ×10⁻⁶ cm/s

## CCN1C[C@]2(COC)[C@H](O)C[C@H](OC)[C@@]34[C@@H]5C[C@@]6(O)[C@H](OC(=O)c7ccccc7)[C@@H]5[C@@](OC(C)=O)([C@@H]([C@H](OC)[C@H]23)[C@@H]14)[C@@H](O)[C@@H]6OC [Aconitine]
[7]
  Ki: 2290 nM

## COc1ccc(Cl)cc1C(=O)NCCc1ccc(S(=O)(=O)NC(=O)NC2CCCCC2)cc1 [Glibenclamide]
[8]
  Ki: 0.781 nM

## Apamin (CNCKAPETALCARRCQQH-NH2; disulfide 1-11, 3-15; ends not checked; UniProt P01500 28-45, looked up)
[9]
  Ki: 0.205 nM

## Angiotensin II (Human)
[10]
  Ki: 0.255 nM

## NOCC(=O)O [AminoOxy acetic acid]
[11]
  Ki: 1170 nM

## CNC(=O)Oc1ccc2c(c1)[C@]1(C)CCN(C)[C@@H]1N2C [Eserine (Physostigmine)]
[12]
  Ki: 385 nM

## CCOC(=O)c1ncn2c1CN(C)C(=O)c1cc(F)ccc1-2 [Ro15-1788 (Flumazenil)]
[13]
  Ki: 0.721 nM

## O=C1C[C@@H]2OCC=C3CN4CC[C@]56c7ccccc7N1[C@H]5[C@H]2[C@H]3C[C@H]46 [Strychnine nitrate]
[14]
  Ki: 28.1 nM

## Tyr0-oCRF
[15]
  Ki: 10.7 nM

## CCK-8 (sulfated)
[16]
  Ki: 0.307 nM

## c1cc2c(cc1C1CCCCC1)c1c3n2CCNC3CCC1 (centres unmarked) [Tetrindole mesylate]
[17]
  Ki: 23.4 nM

## Clc1ccc([C@@H]2C[C@H]3CC[C@@H]2N3)cn1 (racemic) [(+/-) Epibatidine]
[18]
  Ki: 0.0912 nM

## Cc1o[nH]c(=O)c1CC(N)C(=O)O (racemic) [(+/-) AMPA HBr]
[19]
  Ki: 90.7 nM

## Cc1ccc(/C(=C\CN2CCCC2)c2ccccn2)cc1 [Triprolidine]
[20]
  Ki: 7.33 nM

## O=C(O)/C(=C/c1c(C(=O)O)[nH]c2cc(Cl)cc(Cl)c12)c1ccccc1 [MDL-105,519]
[21]
  Ki: 31.5 nM

## CCNC(=O)[C@H]1O[C@@H](n2cnc3c(N)ncnc32)[C@H](O)[C@@H]1O [Neca]
[23]
  Ki: 7.46 nM

## C=CCc1ccccc1OCC(O)CNC(C)C (centres unmarked) [Alprenolol HCl]
[24]
  Ki: 4.55 nM

## Triton X-100 [10% Triton X-100]
[25]
  haemolysis: caused haemolysis

## (+)-MK-801 HMaleate
[26]
  Ki: 12.4 nM

## c1ccc2oc(C3=NCCN3)cc2c1 [2-BFI]
[27]
  Ki: 0.381 nM
